Measurements taken from patent publication US20170042989A1, “PHOTOSENSITIZED TRYPANOSOMATIDS AND VACCINE COMPOSITIONS THEREOF” (ROSALIND FRANKLIN UNIVERSITY OF MEDICINE AND SCIENCE, priority 2015, published 2017).

How the values were obtained:
[1] = test system: Leishmania tropica; assay: Leishmania uptake of PCs by fluorescence microscopy; assay type: cell-based; settings: fluorescent microscopy, Cy5 filter, exposure in the dark
Description: (§1) Leishmania were suspended to 5×10^7-10^8 cells ml^−1 in HBSS-BSA for exposure to serial dilutions of PCs 1-4 in the dark overnight. Controls included cells exposed to diluent alone. J774 macrophages were treated as monolayer in HBSS-BSA or culture medium under otherwise the same conditions. All cultures were kept in the dark for various time periods up to 24 hrs.
Nikon Eclipse 80i and TE2000-S microscopes with CCD cameras were used with Metamorphosis (version 6.1) or NIS Elements version AR 4.20.01 software for image capture and analysis. Concentrated cells (˜3 μl) on a glass slide under an 18 mm^2 glass coverslip were first scanned under phase contrast to localize cells. […] GFP/CFSE fluorescent Leishmania were further examined by using the FITC filter set. Images captured under different settings were merged by using the software programs mentioned. The filter sets (Chroma Technology Co., Brattleboro, Vt.) used were: (1) HQ620/60 (620-nm exciter), Q660LP (660-nm dichroic), and HQ700/80 (700-nm emitter) for phthalocyanines; and (2) HQ480/40 (480-nm exciter), Q505LP (505-nm dichroic), and HQ535/50 (535-nm emitter) for GFP and CFSE.

[2] = test system: Leishmania tropica; assay: Microscopy of Leishmania photolysis after PC sensitization and red light; assay type: cell-based; settings: PC1/PC2: followed by red light; PC3/PC4: with or without red light
Description: as §1
Control and PC-sensitized Leishmania were washed and suspended in HBSS-BSA. The cell suspensions in 24-well culture plates and monolayers of J774 macrophages in 25 cm^2 TC flasks were exposed from the bottom to red light (wavelengths >650 nm) via a red filter (Smith-Victor Co., Barlett, Ill., USA; part #650021) over a light box for 20-30 min at a fluence of 1-2 J cm^2.
Nikon Eclipse 80i and TE2000-S microscopes with CCD cameras were used with Metamorphosis (version 6.1) or NIS Elements version AR 4.20.01 software for image capture and analysis. Concentrated cells (˜3 μl) on a glass slide under an 18 mm^2 glass coverslip were first scanned under phase contrast to localize cells. […] GFP/CFSE fluorescent Leishmania were further examined by using the FITC filter set. Images captured under different settings were merged by using the software programs mentioned. […]

Which results are given for “triethylene glycol substituted Zn(II)-phthalocyanine [PC4]”?
uptake by Leishmania (PC fluorescence in cells) [1]: no uptake; motility and structural integrity after PC sensitization [2]: retained their motility and cellular integrity
